Key:
C. difficile ATCC 43255 [1] = experiment: Antibiotic-induced C. difficile-associated diarrhea mouse model; type: in vivo, C57BL/6 mice; conditions: 10 mg/kg by gavage daily for 5 days; two mouse models (protocols A and B)
Method: Preliminary in vivo experiments were carried out in two mouse models of antibiotic-induced C. difficile-associated diarrhea and two recurrence models to ensure the feasibility of using this new class of antibiotic orally against C. difficile infection.
Groups of 12-weeks-old female C57BL/6 mice were sensitized to CDI with two different protocols. A—Mice were given antibiotic cocktail containing gentamicin (0.035 mg/mL), kanamycin (0.4 mg/ml), metronidazole (0.215 mg/mL), colistin (850 U/mL), and vancomycin (0.045 mg/mL) in drinking water for 5 days. Then mice were treated with clindamycin (10 mg/kg) two days after withdrawal of the antibiotic cocktail. One day after clindamycin treatment, mice were infected orally with 1.9×10^6 CFU spore suspension of C. difficile ATCC 43255 [32]. Two hours after infection, animals were divided into groups (n=10), and groups received either vehicle (sterile water), Compound 27 (10 mg/kg), or vancomycin (10 mg/kg) by gavage daily for 5 days. B— In the second protocol mice were sensitized to CDI with cefoperazone (1.5 mg/mL) in the drinking water for 10 days. Afterwards, mice were switched to regular water for 2 days, followed by injecting clindamycin (10 mg/kg) intraperitoneally. One day after clindamycin treatment, mice were infected and treated as group A above.

Caco-2 cells = experiment: In vitro cytotoxicity (MTS assay) against Caco-2 cells; conditions: tested at 32, 64 and 128 μg/mL, two hours
Method: Percent viable mammalian cells (measured as average absorbance ratio (test agent relative to DMSO) for cytotoxicity analysis of the compounds (tested in triplicate) at 32, 64 and 128 μg/mL against Caco-2 cells using the MTS 3-(4,5-dimethylthiazol-2-yl)-5-(3-carboxymethoxyphenyl)-2-(4-sulfophenyl)-2H-tetrazolium) assay. Dimethyl sulfoxide (DMSO) was used as a negative control to determine a baseline measurement for the cytotoxic impact of each compound. The absorbance values represent an average of a minimum of three samples analyzed for each compound. Error bars represent standard deviation values for the absorbance values. A two-way ANOVA, with post hoc Dunnet's multiple comparisons test, determined statistical difference (denoted by the asterisk, *) (P<0.05) between the values obtained for each compound and DMSO (negative control, used as solvent for the compounds). […]
Method: Compounds were assayed (at concentrations of 32, 64 and 128 μg/mL) against a human colorectal (Caco-2) cell line to determine the potential toxic effect to mammalian cells in vitro. […] Absorbance readings (at OD490) were taken using a kinetic microplate reader (Molecular Devices, Sunnyvale, CA, USA). The quantity of viable cells after treatment with each compound was expressed as a percentage of the viability of DMSO-treated control cells (average of triplicate wells±standard deviation). […]

C. difficile ATCC 43255 [2] = experiment: CDI mouse recurrence model; type: in vivo, C57BL/6 mice; conditions: for signs of disease during therapy / survival by day 11: 10 mg/kg daily for 5 days
From the text: For mouse recurrence, two models were used for testing the efficacy of aminomethyllactone 27 for preventing recurrence after treatment with vancomycin. The two models used were A—Chen et al model and B— a more aggressive protocol that was developed using modified Chen et al. protocol antibiotic cocktail (applying 3× times the doses of the antibiotics). In brief, groups of 12-weeks-old female C57BL/6 mice were sensitized to CDI by giving either the antibiotic cocktail described above or 3× the dose of antibiotics cocktail in the drinking water for 5 days. Then mice were treated with clindamycin (10 mg/kg) two days after withdrawal of the antibiotic cocktail. One day after clindamycin treatment, mice were infected orally with 1.9×10^6 CFU spore suspension of C. difficile ATCC 43255 [32]. Two hours after infection, animals were divided into groups (n=10), and groups received either Compound 27 (10 mg/kg) or vancomycin (10 mg/kg) by gavage daily for 5 days. Treatment was stopped at day 5, and mice were monitored for an additional 23 days. […] However, from day 9 onward (4 days after vancomycin was discontinued), vancomycin-treated mice developed CDI. By day 11, only 60% of the mice treated with vancomycin had survived in the original protocol (lx antibiotic), and there was 0% survival in the aggressive antibiotic protocol (3× antibiotic). […] Symptomatic recurrence of CDI occurs in approximately 20% of patients and is challenging to treat. In addition to subsequent prolongation of C. difficile shedding and transmission, 1 out of every 5 patients with CDI, who experienced a recurrence of the infection, died within 30 days of diagnosis. Compound 27, which reduces recurrences, can potentially prolong the clinical utility of current antibiotics (vancomycin and fidaxomicin).

| Structure (SMILES) | protection (C. difficile ATCC 43255 [1]) [%] | concentration up to which non-toxic to Caco-2 cells (Caco-2 cells) [µg/mL] | signs of disease during therapy (C. difficile ATCC 43255 [2]) | survival of mice (C. difficile ATCC 43255 [2]; 28 days, 10 mg/kg oral daily for 5 days) [%] | recurrence of CDI (C. difficile ATCC 43255 [2]; for 28 days, 10 mg/kg oral daily for 5 days) | survival by day 11 (C. difficile ATCC 43255 [2]; aggressive antibiotic protocol (3× antibiotic)) [%] | survival by day 11 (C. difficile ATCC 43255 [2]; original protocol (1x antibiotic)) [%] | day from which treated mice developed CDI (C. difficile ATCC 43255 [2]; treatment stopped at day 5) [days] |
| --- | --- | --- | --- | --- | --- | --- | --- | --- |
| COc1cc(C2OC(=O)C(CN3CCCCC3)C2c2ccccc2Br)ccc1OCc1ccccc1 (racemic) [Compound 27] | 100 | 128 | no signs of disease | 100 | no recurrence |  |  |  |
| C=C1C(=O)O[C@H](c2ccccc2O)[C@@H]1c1cccc(C#N)c1 (racemic) [Compound 50] |  | 32 |  |  |  |  |  |  |
| CN[C@H](CC(C)C)C(=O)N[C@H]1C(=O)N[C@@H](CC(N)=O)C(=O)N[C@H]2C(=O)N[C@H]3C(=O)N[C@H](C(=O)N[C@H](C(=O)O)c4cc(O)cc(O)c4-c4cc3ccc4O)[C@H](O)c3ccc(c(Cl)c3)Oc3cc2cc(c3O[C@@H]2O[C@H](CO)[C@@H](O)[C@H](O)[C@H]2O[C@H]2C[C@](C)(N)[C@H](O)[C@H](C)O2)Oc2ccc(cc2Cl)[C@H]1O [Vancomycin, reference compound] | 100 |  | no signs of disease |  |  | 0 | 60 | ≥ 9 |

From US20250195490A1, “ALPHA-METHYLENE AND AMINOMETHYL LACTONES AND LACTAMS FOR TREATMENT OF CLOSTRIDIOIDES DIFFICILE INFECTION (CDI)” (Purdue Research Foundation, priority 2022, published 2025)
